This passage reports IC50 results from US20060106026A1, “4-(4-methylpiperazin-1-ylmethyl)-n-[4-pyridin-3-yl)pyrimidin-2-ylamino)phenyl]-benzamide for treating anaplastic thyroid cancer” (priority 2002, published 2006).

Like-named read-outs stand apart in the source and are kept apart here.

Broadly, the IC50 is the concentration needed to halve the response being measured.

The test system of experiment [1] is ARO. An excerpt:
(§1) Human anaplastic thyroid carcinoma cell lines FRO and ARO were used with respectively, undetectable or mutant p53 in codon 273 (Fagin et al., J. Clin. Invest. 1993, 91:179-184). Human papillary carcinoma cell line NPA has p53 mutations in codons 223 and 226 (Fagin et al., J. Clin. Invest. 1993, 91:179-184), while TPC-1 and KTC-1 papillary thyroid carcinoma cell lines are wild type for p53 (Kurebayashi et al., J. Clin. Endocrinol. Metab. 2000, 85:2889-96). Stable transfection with a vector expressing wild type p53 was used to produce the 1F3 cell line from FRO cells (Zeki et al., Int. J. Cancer, 1998, 75:391-5). […] Primary human thyroid cell cultures were established as described previously (Kawabe et al., J. Clin. Endocrinol. Metab., 1989, 68:1174-83) and maintained in a 2:1 mixture of F12 Nutrient Mixture and DEM, supplemented with 3% fetal bovine serum and penicillin-streptomycin (all reagents from Invitrogen Life Technologies, Paisley, UK).
(§2) The kinetics of cell growth were examined using a cytometer as follows: cells were seeded at a density of 0.5 or 0.1×10^5 cells per well in 12-well culture plates. […] Both experiments were performed at least three times.

Experiment [2] concerns FRO.
Text: as §1, §2

The subject of experiment [3] is KTC-1. As to conditions: read-out: IC50 values, mean (50% reduction in cell growth); KTC-1, 72 h of incubation, n=3.
Text: as §1, §2

Experiment [4] has as its system NPA.
Text: as §1, §2

For experiment [5], the system named is TPC-1. The conditions noted are these: read-out: IC50 values, mean (50% reduction in cell growth); TPC-1, 72 h of incubation, n=3.
Text: as §1, §2

For experiment [6], the system named is primary thyrocytes (PT). The conditions noted are these: read-out: IC50 values, mean (50% reduction in cell growth), 72 h of incubation, n=3.
Text: as §1, §2

Where [7] appears, read: read-out: IC50 (cytostatic effect).
Where [8] appears, read: read-out: IC50 values, mean (50% reduction in cell growth), 72 h of incubation, n=3.

For the compound `CS(=O)(=O)O.Cc1ccc(NC(=O)c2ccc(CN3CCN(C)CC3)cc2)cc1Nc1nccc(-c2cccnc2)n1` [SALT I, 4-[(4-methyl-1-piperazin-1-ylmethyl)-N-[4-methyl-3-[[4-(3-pyridinyl)-2-pyrimidinyl]amino]phenyl]benzamide methanesulfonate], the IC50 in experiment [1] (setting [7]) amounted to 5.9 µM; in experiment [1] (setting [8]), 8.1 µM; in experiment [2] (setting [7]), 7.8 µM; in experiment [2] (setting [8]) it was 6.4 µM; in experiment [3], 22.6 µM; in experiment [4] (read-out: IC50, as stated in the discussion, NPA cells), 16 µM. For the same compound, the IC50 worked out at 15.6 µM in experiment [4] (read-out: IC50 values, mean (50% reduction in cell growth), NPA, 72 h of incubation, n=3); 29.5 µM in experiment [5]; 24.7 µM in experiment [6].
